# Results reported in patent publication US5023239A, “Sialosyl cholesterol, process for producing the same, and neuropathy remedy comprising the same” (MECT Corporation, priority 1986, dated 1991).
# Assays:
# ddy male mice = test: Acute toxicity test, intravenous injection; assay type: in vivo, mouse; conditions: ddy male mice of 45 weeks age
# Experimental: Acute toxicity test was conducted by intravenously injecting the compounds into ddy male mice of 45 weeks age.
# [1] = test system: Neuroblastoma Cell, Neuro 2a Strain; test: Effect on proliferation / neurite propagation of neuroblastoma cell, Neuro 2a strain; assay type: cell-based, mouse; conditions: for activity (in words): 24 hours cultivation; for minimal effective concentration: 48 hours after addition
# Experimental: Experiments for confirming the activity of the present compound for promoting propagation of neurites will be explained below.
# Effect On Proliferation of Neuroblastoma Cell, Neuro 2a Strain
# Neuro 2a was floated on culture medium consisting of 90% of Dulbecco's Modified Eagle's Midium, and 10% of fetal calf serum (FCS), and containing 100 units/ml of penicillin G and 100 micro g/ml of streptomycin sulfate, and then cultivated at 37° C. in a carbon dioxide incubator containing air into which 5% of carbon dioxide was incorporated. The vessel as used was a polystyrene tray having a diameter of 60 mm. 1 to 2×10^4 of the neuroblastoma cells were implanted in each tray and cultivated for 48 hours. The FCS-containing culture was removed from the resultant cell culture. […] When 24 and 48 hours had passed after the addition of these medicines, the number of the living cells increased in the culture, the number of the neurites increased, and the length of the neurites were measured. The experiment was conducted on three trays with respect to each concentration. The resultant data were expressed by average value+standard error (S.E).
compound,measurement,setting,value
"CC(=O)NC1C(O)CC(OC2CCC3(C)C(=CCC4C3CCC3(C)C(C(C)CCCC(C)C)CCC43)C2)(C(=O)O)OC1C(O)C(O)CO [Compound (5), sodium 5-acetoamide-2-O-(5-cholesten-3-beta-yl)-3,5-dideoxy-beta-D-glycero-D-galacto-2-nonulopyranosonate]",LD50,ddy male mice,291 mg/kg
same,activity (in words),[1]; 10 ng/ml,indicated activity
same,Length of neurite ± S.E.,"[1]; 24 hrs, 10 ng/ml",89.4 ± 4.23 μm/cell
same,Number of neurite propagated cells,"[1]; 24 hrs, 10 ng/ml",124
same,Number of neurites ± S.E.,"[1]; 24 hrs, 10 ng/ml",1.3 ± 0.05 number/cell
same,Rate of neurite propagation (%),"[1]; 24 hrs, 10 ng/ml",34.3%
same,Total number of cells,"[1]; 24 hrs, 10 ng/ml",361
same,Length of neurite ± S.E.,"[1]; 24 hrs, 100 ng/ml",116.4 ± 5.59 μm/cell
same,Number of neurite propagated cells,"[1]; 24 hrs, 100 ng/ml",156
same,Number of neurites ± S.E.,"[1]; 24 hrs, 100 ng/ml",1.2 ± 0.03 number/cell
same,Rate of neurite propagation (%),"[1]; 24 hrs, 100 ng/ml",40.6%
same,Total number of cells,"[1]; 24 hrs, 100 ng/ml",384
same,Length of neurite ± S.E.,"[1]; 24 hrs, 1 μg/ml",130.8 ± 5.16 μm/cell
same,Number of neurite propagated cells,"[1]; 24 hrs, 1 μg/ml",213
same,Number of neurites ± S.E.,"[1]; 24 hrs, 1 μg/ml",1.2 ± 0.04 number/cell
same,Rate of neurite propagation (%),"[1]; 24 hrs, 1 μg/ml",53.8%
same,Total number of cells,"[1]; 24 hrs, 1 μg/ml",396
same,minimal effective concentration,[1],100 ng/mL
same,Length of neurite ± S.E.,"[1]; 48 hrs, 10 ng/ml",110.6 ± 4.93 μm/cell
same,Number of neurite propagated cells,"[1]; 48 hrs, 10 ng/ml",226
same,Number of neurites ± S.E.,"[1]; 48 hrs, 10 ng/ml",1.2 ± 0.04 number/cell
same,Rate of neurite propagation (%),"[1]; 48 hrs, 10 ng/ml",47.9%
same,Total number of cells,"[1]; 48 hrs, 10 ng/ml",472
same,Length of neurite ± S.E.,"[1]; 48 hrs, 100 ng/ml",135.1 ± 6.23 μm/cell
same,Number of neurite propagated cells,"[1]; 48 hrs, 100 ng/ml",212
same,Number of neurites ± S.E.,"[1]; 48 hrs, 100 ng/ml",1.3 ± 0.04 number/cell
same,Rate of neurite propagation (%),"[1]; 48 hrs, 100 ng/ml",50.2%
same,Total number of cells,"[1]; 48 hrs, 100 ng/ml",422
same,Length of neurite ± S.E.,"[1]; 48 hrs, 1 μg/ml",138.9 ± 5.39 μm/cell
same,Number of neurite propagated cells,"[1]; 48 hrs, 1 μg/ml",252
same,Number of neurites ± S.E.,"[1]; 48 hrs, 1 μg/ml",1.2 ± 0.03 number/cell
same,Rate of neurite propagation (%),"[1]; 48 hrs, 1 μg/ml",55.5%
same,Total number of cells,"[1]; 48 hrs, 1 μg/ml",454
same,growth / propagation of neurites (in words),[1]; Neuro 2a culture,strong activity for the propagation of the neurites
same,activity relative to GMl (times as high),"[1]; vs GMl, from minimal effective concentrations at 48 hours, molecular weights considered",42 times
same,activity relative to GQlb (times as high),"[1]; vs GQlb, from minimal effective concentrations at 48 hours, molecular weights considered",27 times
<NAcNeu (alpha 2-8) NAcNeu (alpha 2-3)>Gal (beta 1-3) GalNAc (beta 1-4)- NAcNeu-(alpha 2-8) <NAcNeu- (alpha 2-3)>-Gal (beta 1-4) Glc (beta 1-1)-Ceramide [GQlb],activity (in words),[1],do not provide any activity
same,Length of neurite ± S.E.,"[1]; 24 hrs, 10 ng/ml",88.5 ± 5.00 μm/cell
same,Number of neurite propagated cells,"[1]; 24 hrs, 10 ng/ml",174
same,Number of neurites ± S.E.,"[1]; 24 hrs, 10 ng/ml",1.3 ± 0.05 number/cell
same,Rate of neurite propagation (%),"[1]; 24 hrs, 10 ng/ml",51.8%
same,Total number of cells,"[1]; 24 hrs, 10 ng/ml",336
same,Length of neurite ± S.E.,"[1]; 24 hrs, 100 ng/ml",86.0 ± 4.72 μm/cell
same,Number of neurite propagated cells,"[1]; 24 hrs, 100 ng/ml",159
same,Number of neurites ± S.E.,"[1]; 24 hrs, 100 ng/ml",1.3 ± 0.04 number/cell
same,Rate of neurite propagation (%),"[1]; 24 hrs, 100 ng/ml",48.0%
same,Total number of cells,"[1]; 24 hrs, 100 ng/ml",331
same,Length of neurite ± S.E.,"[1]; 24 hrs, 1 μg/ml",97.6 ± 4.95 μm/cell
same,Number of neurite propagated cells,"[1]; 24 hrs, 1 μg/ml",157
same,Number of neurites ± S.E.,"[1]; 24 hrs, 1 μg/ml",1.4 ± 0.05 number/cell
same,Rate of neurite propagation (%),"[1]; 24 hrs, 1 μg/ml",51.0%
same,Total number of cells,"[1]; 24 hrs, 1 μg/ml",308
same,Length of neurite ± S.E.,"[1]; 24 hrs, 10 μg/ml",114.9 ± 5.98 μm/cell
same,Number of neurite propagated cells,"[1]; 24 hrs, 10 μg/ml",205
same,Number of neurites ± S.E.,"[1]; 24 hrs, 10 μg/ml",1.4 ± 0.06 number/cell
same,Rate of neurite propagation (%),"[1]; 24 hrs, 10 μg/ml",63.9%
same,Total number of cells,"[1]; 24 hrs, 10 μg/ml",321
same,minimal effective concentration,[1],10 micro g/ml
same,Length of neurite ± S.E.,"[1]; 48 hrs, 10 ng/ml",100.4 ± 5.76 μm/cell
same,Number of neurite propagated cells,"[1]; 48 hrs, 10 ng/ml",158
same,Number of neurites ± S.E.,"[1]; 48 hrs, 10 ng/ml",1.5 ± 0.06 number/cell
same,Rate of neurite propagation (%),"[1]; 48 hrs, 10 ng/ml",42.6%
same,Total number of cells,"[1]; 48 hrs, 10 ng/ml",371
same,Length of neurite ± S.E.,"[1]; 48 hrs, 100 ng/ml",90.4 ± 6.06 μm/cell
same,Number of neurite propagated cells,"[1]; 48 hrs, 100 ng/ml",153
same,Number of neurites ± S.E.,"[1]; 48 hrs, 100 ng/ml",1.2 ± 0.04 number/cell
same,Rate of neurite propagation (%),"[1]; 48 hrs, 100 ng/ml",44.1%
same,Total number of cells,"[1]; 48 hrs, 100 ng/ml",347
same,Length of neurite ± S.E.,"[1]; 48 hrs, 1 μg/ml",106.5 ± 6.40 μm/cell
same,Number of neurite propagated cells,"[1]; 48 hrs, 1 μg/ml",182
same,Number of neurites ± S.E.,"[1]; 48 hrs, 1 μg/ml",1.3 ± 0.04 number/cell
same,Rate of neurite propagation (%),"[1]; 48 hrs, 1 μg/ml",47.4%
same,Total number of cells,"[1]; 48 hrs, 1 μg/ml",384
same,Length of neurite ± S.E.,"[1]; 48 hrs, 10 μg/ml",122.5 ± 6.99 μm/cell
same,Number of neurite propagated cells,"[1]; 48 hrs, 10 μg/ml",214
same,Number of neurites ± S.E.,"[1]; 48 hrs, 10 μg/ml",1.3 ± 0.04 number/cell
same,Rate of neurite propagation (%),"[1]; 48 hrs, 10 μg/ml",61.8%
same,Total number of cells,"[1]; 48 hrs, 10 μg/ml",346
Gal (beta 1-3) GalNac (beta 1-4 ) <NAcNeu-(alpha2-3)>Gal (beta 1-4) Glc (beta 1-1)-Ceramide [GM1],activity (in words),[1],do not provide any activity
same,Length of neurite ± S.E.,"[1]; 24 hrs, 10 ng/ml",94.9 ± 6.64 μm/cell
same,Number of neurite propagated cells,"[1]; 24 hrs, 10 ng/ml",145
same,Number of neurites ± S.E.,"[1]; 24 hrs, 10 ng/ml",1.4 ± 0.05 number/cell
same,Rate of neurite propagation (%),"[1]; 24 hrs, 10 ng/ml",43.4%
same,Total number of cells,"[1]; 24 hrs, 10 ng/ml",334
same,Length of neurite ± S.E.,"[1]; 24 hrs, 100 ng/ml",101.1 ± 5.09 μm/cell
same,Number of neurite propagated cells,"[1]; 24 hrs, 100 ng/ml",142
same,Number of neurites ± S.E.,"[1]; 24 hrs, 100 ng/ml",1.4 ± 0.06 number/cell
same,Rate of neurite propagation (%),"[1]; 24 hrs, 100 ng/ml",47.8%
same,Total number of cells,"[1]; 24 hrs, 100 ng/ml",297
same,Length of neurite ± S.E.,"[1]; 24 hrs, 1 μg/ml",109.7 ± 6.44 μm/cell
same,Number of neurite propagated cells,"[1]; 24 hrs, 1 μg/ml",140
same,Number of neurites ± S.E.,"[1]; 24 hrs, 1 μg/ml",1.4 ± 0.06 number/cell
same,Rate of neurite propagation (%),"[1]; 24 hrs, 1 μg/ml",42.2%
same,Total number of cells,"[1]; 24 hrs, 1 μg/ml",332
same,Length of neurite ± S.E.,"[1]; 24 hrs, 10 μg/ml",89.3 ± 4.77 μm/cell
same,Number of neurite propagated cells,"[1]; 24 hrs, 10 μg/ml",149
same,Number of neurites ± S.E.,"[1]; 24 hrs, 10 μg/ml",1.4 ± 0.05 number/cell
same,Rate of neurite propagation (%),"[1]; 24 hrs, 10 μg/ml",45.8%
same,Total number of cells,"[1]; 24 hrs, 10 μg/ml",325
same,Length of neurite ± S.E.,"[1]; 24 hrs, 100 μg/ml",90.5 ± 3.88 μm/cell
same,Number of neurite propagated cells,"[1]; 24 hrs, 100 μg/ml",172
same,Number of neurites ± S.E.,"[1]; 24 hrs, 100 μg/ml",1.8 ± 0.06 number/cell
same,Rate of neurite propagation (%),"[1]; 24 hrs, 100 μg/ml",55.5%
same,Total number of cells,"[1]; 24 hrs, 100 μg/ml",310
same,minimal effective concentration,[1],10 micro g/ml
same,Length of neurite ± S.E.,"[1]; 48 hrs, 10 ng/ml",93.7 ± 5.07 μm/cell
same,Number of neurite propagated cells,"[1]; 48 hrs, 10 ng/ml",194
same,Number of neurites ± S.E.,"[1]; 48 hrs, 10 ng/ml",1.4 ± 0.05 number/cell
same,Rate of neurite propagation (%),"[1]; 48 hrs, 10 ng/ml",58.3%
same,Total number of cells,"[1]; 48 hrs, 10 ng/ml",333
same,Length of neurite ± S.E.,"[1]; 48 hrs, 100 ng/ml",108.8 ± 5.97 μm/cell
same,Number of neurite propagated cells,"[1]; 48 hrs, 100 ng/ml",156
same,Number of neurites ± S.E.,"[1]; 48 hrs, 100 ng/ml",1.4 ± 0.06 number/cell
same,Rate of neurite propagation (%),"[1]; 48 hrs, 100 ng/ml",44.7%
same,Total number of cells,"[1]; 48 hrs, 100 ng/ml",349
same,Length of neurite ± S.E.,"[1]; 48 hrs, 1 μg/ml",109.2 ± 6.09 μm/cell
same,Number of neurite propagated cells,"[1]; 48 hrs, 1 μg/ml",211
same,Number of neurites ± S.E.,"[1]; 48 hrs, 1 μg/ml",1.3 ± 0.04 number/cell
same,Rate of neurite propagation (%),"[1]; 48 hrs, 1 μg/ml",59.9%
same,Total number of cells,"[1]; 48 hrs, 1 μg/ml",352
same,Length of neurite ± S.E.,"[1]; 48 hrs, 10 μg/ml",113.8 ± 5.49 μm/cell
same,Number of neurite propagated cells,"[1]; 48 hrs, 10 μg/ml",205
same,Number of neurites ± S.E.,"[1]; 48 hrs, 10 μg/ml",1.3 ± 0.04 number/cell
same,Rate of neurite propagation (%),"[1]; 48 hrs, 10 μg/ml",62.1%
same,Total number of cells,"[1]; 48 hrs, 10 μg/ml",330
same,Length of neurite ± S.E.,"[1]; 48 hrs, 100 μg/ml",98.9 ± 5.22 μm/cell
same,Number of neurite propagated cells,"[1]; 48 hrs, 100 μg/ml",193
same,Number of neurites ± S.E.,"[1]; 48 hrs, 100 μg/ml",1.5 number/cell
same,Rate of neurite propagation (%),"[1]; 48 hrs, 100 μg/ml",60.9%
same,Total number of cells,"[1]; 48 hrs, 100 μg/ml",317
